{
  "source": "patent US11142518B2",
  "about": "“6-pyrimidin-isoindole derivative as ERK1/2 inhibitor” (OTSUKA PHARMACEUTICAL CO., LTD., priority 2017, dated 2021)",
  "key": {"[1]": {"assay": "Solubility determinations in purified water and buffers", "format": "physicochemical", "settings": "for solubility at 24 h: 18 °C, read-out: Measured solubilities (mg/ml), bound; for solubility at 24 h / Measured solubilities (mg/ml), value in brackets / Measured solubilities (mg/ml), bound: 18-23° C., t = 24 h", "description": "The solubilities of crystalline form B and the amorphous form of the compound of formula (1) were determined in purified water and buffers at the same concentration up to 24 h stir time at 18 to 23° C.\nThe samples of the compound of formula (1) (50 mg) were each suspended in purified water (2 mL) or the appropriate buffer and stirred at ambient temperature (18-23° C.) for 20 to 24 h. After this time the slurries were centrifuged, diluted if appropriate by HPLC sample diluent (acetonitrile/water, 1/1, v/v) and analysed by HPLC peak area. The measured values were compared against a relevant calibration curve for the compound of formula (1). The approximate solubilities were calculated and compensation factors were applied for the appropriate dilution factors and % w/w assays. The dilution factor ensured that the peak area values fell within the desired calibration curve ranges.\nThe plug of solid that remained in the centrifuge tube was dried in vacuum oven and analysed by XRPD.\nThe preparations of the buffers used in the study are described below:\npH 1.2—Mix 50 mL of 0.2M potassium chloride solution with 85 mL of 0.2M hydrochloric acid solution.\npH 2—Mix 50 mL of 0.2M potassium chloride solution with 13 mL of 0.2M hydrochloric acid solution.\npH 3—Mix 100 mL of 0.1M potassium hydrogen phthalate with 44.6 mL of 0.1M hydrochloric acid solution.\npH 4—Mix 100 mL of 0.1M potassium hydrogen phthalate with 0.2 mL of 0.1M hydrochloric acid solution.\npH 5—Mix 100 mL of 0.1M potassium hydrogen phthalate with 45.2 mL of 0.1M sodium hydroxide solution.\npH 6—Mix 100 mL of 0.1M potassium dihydrogen orthophosphate with 11.2 mL of 0.1M sodium hydroxide solution.\npH 7—Mix 100 mL of 0.1M potassium dihydrogen orthophosphate with 58.2 mL of 0.1M sodium hydroxide solution.\npH 8—Mix 100 mL of 0.1M potassium dihydrogen orthophosphate with 93.4 mL of 0.1M sodium hydroxide solution."}, "[2]": {"assay": "Solubility determinations in non-aqueous solvents", "format": "physicochemical", "settings": "for solubility at 72 h: organic solvent or mixture, thermodynamic from solid, read-out: Estimated maximum solubilities (mg/ml), at 18 to 23° C.", "description": "Form B of Compound (1), prepared as described in Example 3, was charged to the appropriate solvent (2 ml) at intervals of approximately 1 hour. The solutions were purposefully saturated and allowed to stir over 72 h at 18 to 23° C. After this time, the suspensions were centrifuged, their supernatants were sampled, diluted accordingly and the peak areas of the corresponding analytes were measured by HPLC and compared against those of the standard calibrants. The approximate solubilities were calculated and solubilities were physically checked on an anhydrous solvent free basis to confirm that the results were consistent.\nThe saturated solutions were centrifuged and 100 μl of the clarified supernatant was added to 250 ml volumetric (ethanol) or 100 ml volumetrics (remainder) and made to volume with sample diluent. The diluted samples were then analysed by HPLC peak area and the estimated maximum solubilities were calculated and are reported in the table below.\nTo confirm the estimated solubilities were of the right order of magnitude solutions were prepared up to the estimated maximum measured concentrations and the mixtures were stirred overnight under the same conditions to confirm dissolution."}, "[3]": {"system": "Human melanoma cell line A375", "assay": "Anti-proliferative activity (Alamar Blue)", "format": "cell-based", "settings": "A-375, 96 h, A375 cells, 4 days incubation", "description": "The anti-proliferative activities of the compound of the invention was determined by measuring the ability of the compound of formula (1) to inhibit growth in the Human melanoma cell line A375.\nCell proliferation was determined by measuring the conversion of rezasurin (Alamar Blue) to resorufin in reponse to mitochondrial activity (Nociari, M. M, Shalev, A., Benias, P., Russo, C. Journal of Immunological Methods 1998, 213, 157-167). A375 cells (American Type Culture Collection, Teddington, UK) were grown in Dulbecco's Modified Eagle Medium+10% FBS. Each well of a black 96-well flat-bottomed plate was seeded with 2×10^3 cells in 200 μl of complete culture medium one day before the compound treatment. Cells were incubated with compound in 0.1% (v/v) dimethyl sulfoxide (DMSO) for 4 days before addition of 20 μl Alamar blue. After a further 6 h incubation at 37° C. the plate was read on a Spectramax Gemini reader (Molecular Devices; excitation 535 nm, emission 590 nm). GI50 values were calculated using a sigmoidal dose response equation (Prism GraphPad software, La Jolla, Calif., USA)."}},
  "note": "Where two headings read alike, the source gives them in different places.",
  "data": [
    {"smiles": "COc1cc(F)cc([C@@H](CO)NC(=O)[C@@H](C)N2Cc3ccc(-c4nc(NC5CCOCC5)ncc4Cl)cc3C2=O)c1", "note": "[(2R)-2-(6-{5-chloro-2-[(oxan-4-yl)amino]pyrimidin-4-yl}-1-oxo-2,3-dihydro-1H-isoindol-2-yl)-N-[(1S)-1-(3-fluoro-5-methoxyphenyl)-2-hydroxyethyl]propanamide]", "values": [
      {"measurement": "solubility", "setting": "[1]; buffers at pH 1.2 to 8.0, 20.5 °C, pH 1.2, aqueous buffer, thermodynamic from solid, buffers at pH 1.2 to 8.0, read-out: Solubility in buffers (conclusion: practically insoluble)", "value": "< 100", "unit": "µg/mL"},
      {"measurement": "solubility at 24 h", "setting": "[1]; pH 1.2 buffer, pH 1.2, simulated gastric fluid, thermodynamic from solid, pH 1.2 Buffer", "value": "≥ 0.1", "unit": "mg/mL"},
      {"measurement": "solubility at 24 h", "setting": "[1]; pH 2 buffer, pH 2, simulated gastric fluid, thermodynamic from solid, pH 2 Buffer", "value": "< 0.1", "unit": "mg/mL"},
      {"measurement": "solubility at 24 h", "setting": "[1]; pH 3 buffer, pH 3, aqueous buffer, thermodynamic from solid, pH 3 Buffer", "value": "< 0.1", "unit": "mg/mL"},
      {"measurement": "solubility at 24 h", "setting": "[1]; pH 4 buffer, pH 4, aqueous buffer, thermodynamic from solid, pH 4 Buffer", "value": "< 0.1", "unit": "mg/mL"},
      {"measurement": "solubility at 24 h", "setting": "[1]; pH 5 buffer, pH 5, aqueous buffer, thermodynamic from solid, pH 5 Buffer", "value": "< 0.1", "unit": "mg/mL"},
      {"measurement": "solubility at 24 h", "setting": "[1]; pH 6 buffer, pH 6, aqueous buffer, thermodynamic from solid, pH 6 Buffer", "value": "< 0.1", "unit": "mg/mL"},
      {"measurement": "solubility at 24 h", "setting": "[1]; pH 7 buffer, pH 7, aqueous buffer, thermodynamic from solid, pH 7 Buffer", "value": "< 0.1", "unit": "mg/mL"},
      {"measurement": "solubility at 24 h", "setting": "[1]; pH 8 buffer, pH 8, aqueous buffer, thermodynamic from solid, pH 8 Buffer", "value": "< 0.1", "unit": "mg/mL"},
      {"measurement": "solubility at 24 h", "setting": "[1]; purified water, water, thermodynamic from solid, Purified water", "value": "< 0.1", "unit": "mg/mL"},
      {"measurement": "solubility at 72 h", "setting": "[2]; PEG 400, 18 °C", "value": 229, "unit": "mg/mL"},
      {"measurement": "solubility at 72 h", "setting": "[2]; ethanol, 18 °C", "value": 337, "unit": "mg/mL"},
      {"measurement": "solubility at 72 h", "setting": "[2]; glycerol, 18 °C", "value": 5, "unit": "mg/mL"},
      {"measurement": "solubility at 72 h", "setting": "[2]; propylene glycol, 18 °C", "value": 289, "unit": "mg/mL"}
    ]},
    {"smiles": "COc1cc(F)cc([C@@H](CO)NC(=O)[C@@H](C)N2Cc3ccc(-c4nc(NC5CCOCC5)ncc4Cl)cc3C2=O)c1", "note": "[Amorphous Form of the Compound of Formula (1)] [(2R)-2-(6-{5-chloro-2-[(oxan-4-yl)amino]pyrimidin-4-yl}-1-oxo-2,3-dihydro-1H-isoindol-2-yl)-N-[(1S)-1-(3-fluoro-5-methoxyphenyl)-2-hydroxyethyl]propanamide]", "values": [
      {"measurement": "Measured solubilities (mg/ml), value in brackets", "setting": "[1]; Purified water", "value": "(0.0234 mg/ml"},
      {"measurement": "Measured solubilities (mg/ml), value in brackets", "setting": "[1]; pH 1.2 Buffer", "value": "(0.1249 mg/ml"},
      {"measurement": "Measured solubilities (mg/ml), value in brackets", "setting": "[1]; pH 2 Buffer", "value": "(0.0226 mg/ml"},
      {"measurement": "Measured solubilities (mg/ml), value in brackets", "setting": "[1]; pH 3 Buffer", "value": "(0.0257 mg/ml"},
      {"measurement": "Measured solubilities (mg/ml), value in brackets", "setting": "[1]; pH 4 Buffer", "value": "(0.0418 mg/ml"},
      {"measurement": "Measured solubilities (mg/ml), value in brackets", "setting": "[1]; pH 5 Buffer", "value": "(0.0268 mg/ml"},
      {"measurement": "Measured solubilities (mg/ml), value in brackets", "setting": "[1]; pH 6 Buffer", "value": "(0.0149 mg/ml"},
      {"measurement": "Measured solubilities (mg/ml), value in brackets", "setting": "[1]; pH 7 Buffer", "value": "(0.0136 mg/ml"},
      {"measurement": "Measured solubilities (mg/ml), value in brackets", "setting": "[1]; pH 8 Buffer", "value": "(0.0138 mg/ml"}
    ]},
    {"smiles": "COc1cc(F)cc([C@@H](CO)NC(=O)[C@@H](C)N2Cc3ccc(-c4nc(NC5CCOCC5)ncc4Cl)cc3C2=O)c1", "note": "[Crystalline Form B of the Compound of Formula (1)] [(2R)-2-(6-{5-chloro-2-[(oxan-4-yl)amino]pyrimidin-4-yl}-1-oxo-2,3-dihydro-1H-isoindol-2-yl)-N-[(1S)-1-(3-fluoro-5-methoxyphenyl)-2-hydroxyethyl]propanamide]", "values": [
      {"measurement": "Measured solubilities (mg/ml), bound", "setting": "[1]; Purified water", "value": "<0.1", "unit": "mg/mL"},
      {"measurement": "Measured solubilities (mg/ml), bound", "setting": "[1]; pH 1.2 Buffer", "value": "<0.1", "unit": "mg/mL"},
      {"measurement": "Measured solubilities (mg/ml), bound", "setting": "[1]; pH 2 Buffer", "value": "<0.1", "unit": "mg/mL"},
      {"measurement": "Measured solubilities (mg/ml), value in brackets", "setting": "[1]; pH 2 Buffer", "value": "(0.0034 mg/ml"},
      {"measurement": "Measured solubilities (mg/ml), bound", "setting": "[1]; pH 3 Buffer", "value": "<0.1", "unit": "mg/mL"},
      {"measurement": "Measured solubilities (mg/ml), value in brackets", "setting": "[1]; pH 3 Buffer", "value": "(0.0045 mg/ml"},
      {"measurement": "Measured solubilities (mg/ml), bound", "setting": "[1]; pH 4 Buffer", "value": "<0.1", "unit": "mg/mL"},
      {"measurement": "Measured solubilities (mg/ml), value in brackets", "setting": "[1]; pH 4 Buffer", "value": "(0.0049 mg/ml"},
      {"measurement": "Measured solubilities (mg/ml), bound", "setting": "[1]; pH 5 Buffer", "value": "<0.1", "unit": "mg/mL"},
      {"measurement": "Measured solubilities (mg/ml), value in brackets", "setting": "[1]; pH 5 Buffer", "value": "(0.0031 mg/ml"},
      {"measurement": "Measured solubilities (mg/ml), bound", "setting": "[1]; pH 6 Buffer", "value": "<0.1", "unit": "mg/mL"},
      {"measurement": "Measured solubilities (mg/ml), value in brackets", "setting": "[1]; pH 6 Buffer", "value": "(0.0027 mg/ml"},
      {"measurement": "Measured solubilities (mg/ml), bound", "setting": "[1]; pH 7 Buffer", "value": "<0.1", "unit": "mg/mL"},
      {"measurement": "Measured solubilities (mg/ml), value in brackets", "setting": "[1]; pH 7 Buffer", "value": "(0.0017 mg/ml"},
      {"measurement": "Measured solubilities (mg/ml), bound", "setting": "[1]; pH 8 Buffer", "value": "<0.1", "unit": "mg/mL"},
      {"measurement": "Measured solubilities (mg/ml), value in brackets", "setting": "[1]; pH 8 Buffer", "value": "(0.0020 mg/ml"}
    ]},
    {"smiles": "COc1cc(F)cc([C@@H](CO)NC(=O)[C@@H](C)N2Cc3ccc(-c4nc(NC5CCOCC5)ncc4Cl)cc3C2=O)c1", "note": "[compound of formula (1), (2R)-2-(6-{5-chloro-2-[(oxan-4-yl)amino]pyrimidin-4-yl}-1-oxo-2,3-dihydro-1H-isoindol-2-yl)-N-[(1S)-1-(3-fluoro-5-methoxyphenyl)-2-hydroxyethyl]propanamide]", "values": [
      {"measurement": "GI50", "setting": "[3]", "value": 3.4, "unit": "nM"},
      {"measurement": "Solubility in ethanol, PEG 400 and propylene glycol compared with water", "setting": "[2]; ethanol, PEG 400 and propylene glycol than in water", "value": "significantly greater solubility"}
    ]}
  ]
}
